Where two headings read alike, the source gives them in different places.
How the values were obtained:
Type in all cases: in vitro ADME
[1] = Bidirectional permeability study in CACO-2 cells; conditions: human, pH 7.4, Caco-2 monolayer, pH 7.40
Method: Caco-2 cells were inoculated onto polyethylene membrane (PET) in 96-well inserted plates at a rate of 1×10^5 cells/cm^2, and the medium was changed every 4 to 5 days until day 21 to 28, to form a fused cell monolayer. The transport buffer in the assay was HBSS and 10.0 mM HEPES, with a pH of 7.40±0.05. The test compounds were subjected to a bidirectional test at 2.00 μM in the presence and absence of GF120918 (10.0 μM). Digoxin was subjected to a bidirectional test at 10.0 μM in the presence and absence of GF120918 (10.0 μM), while Nadolol and Metoprolol were subjected to a test from direction A to direction B at 2.00 μM in the absence of GF120918 (10.0 μM). The above tests were performed in duplicate. The final concentration of DMSO was adjusted to be lower than 1%. The plate was incubated in a CO2 incubator at 37° C.±1° C. for 2 hours, and 5% CO2 was added under saturated humidity without shaking. All the samples, after being mixed with acetonitrile containing internal standard, were centrifuged at 3,200 g for 10 minutes. […] The concentrations of the test compounds and control compounds in the starting solution, the donor solution, and the acceptor solution were quantified by LC-MS/MS based on a peak area ratio of the analyte to the internal standard.
After the transport assay, the integrity of the Caco-2 cell monolayer was determined using Lucifer Yellow Exclusion Assay.

[2] = Liver microsome stability assay; conditions: dog; Canine liver microsomes; read-out: T1/2 (min) Canine
[3] = Liver microsome stability assay; conditions: Human liver microsomes, NADPH, 37° C.; read-out: T1/2 (min) Human
Method: The human liver microsome stability assay was performed by co-incubating the compound with human liver microsomes in vitro. The test compounds were first prepared as 10 mM stock solutions in DMSO solvent, and then diluted to 0.5 mM with acetonitrile. Human liver microsomes (Corning) were diluted with PBS to prepare a microsome/buffer solution, and this solution was used to dilute 0.5 mM of the compound to prepare a working solution. In the working solution, a concentration of the compound was 1.5 μM and a concentration of the human liver microsome was 0.75 mg/ml. A deep-well plate was taken, 30 μL of working solution was added to each well of the plate, and then 15 μL of pre-heated NADPH solution (6 mM) was added to start the reaction. The mixture was incubated at 37° C. 135 μL of acetonitrile was added to the corresponding wells to stop the reaction at 0 minute, 5 minutes, 15 minutes, 30 minute, and 45 minutes of incubation. Subsequent to the stop of the reaction by means of acetonitrile at the last time point of 45 minute, the plate was vortexed for 10 minutes (600 rpm/min) and then centrifuged for 15 minutes. […] The peak area ratios of the compound at 5 minutes, 15 minutes, 30 minutes, and 45 minutes were compared with the peak area ratio at 0 minute, and the remaining percentage of the compound at each time point was calculated. T1/2 was calculated using Graphpad8 software.

CYP2D6 = CYP2D6 (Homo sapiens (Human), UniProt P10635); experiment: CYP inhibition assay in mixed human liver microsomes; conditions: mixed (pooled) human liver microsomes, read-out: Inhibition rate % CYP2D6
Method: The inhibitory effects of the compounds on seven enzymes, i.e., CYP1A2, CYP2C9, CYP2C19, CYP2D6, CYP3A4 (midazolam), CYP2B6, and CYP2C8, were evaluated at a concentration of 10 μM. Mixed human liver microsomes, which were previously stored in a −80° C. refrigerator before use, were taken out and thawed in a water bath at 37° C. before use, and placed on ice for further operation. 100 μL of microsome working solution was taken, and added with 2 μL of test product or positive inhibitor working solution. 2 μL of solvent was added to the solvent control. The mixture was pre-incubated in a water bath at 37° C. for 10 minutes. After preincubation, 98 μL of NADPH regeneration solution was added to all samples to initiate the reaction. Then, the samples were put back into the water bath and incubated for a period of time. The reaction was quenched with 200 μL of stop solution. The plate was centrifuged at 3,220 g for 10 minutes, 100 μL of supernatant was transferred, and 100 μL of water was added and mixed well to the assay plate for LC/MS/MS analysis.

[4] = Free plasma protein binding (PPB) assay, equilibrium dialysis; conditions: dialysis 6 hours at 37° C.
Method: The dried dialysis membrane was soaked in ultrapure water for 1 hour, then soaked in 20% ethanol for 20 minutes, and then rinsed with ultrapure water for 2 to 3 times. Finally, the dried dialysis membrane was soaked in ultrapure water for 20 minutes for later use. The frozen plasma was thawed in a water bath at 37° C. for about 20 minutes. pH value of the plasma was measured after thawing was complete, and was adjusted to 7.4 with 1% phosphoric acid solution or 0.1M sodium hydroxide solution. […] The pretreated dialysis membrane was assembled into the dialysis plate according to product instructions, and 100 μL of receiving solution (100 mM phosphate buffer solution plus 0.002% Tween 80) was added to one side of the permeable membrane in each dialysis well. 20 μL of each of the final solution of the test compound and the final solution of the control compound were taken in a 96-well sample plate, two duplicate samples were made, and T0 sample was obtained, which was stored in a −20° C. refrigerator. Another 100 μL of each of the above-mentioned final solutions were taken to the other side of the membrane in the dialysis device, two duplicate samples were made, and incubated at 37° C. with constant shaking for 6 hours. After 6 hours of incubation, 20 μL of each of the dialyzed receiving solution and the administered plasma were taken, two duplicate samples were made, and sample A and sample B were obtained. Corresponding blank plasma or receiving solution of corresponding volume were added to sample B and sample A, respectively, allowing the volume ratio of plasma to buffer in each sample well to be 1:1. 300 μL of sample-containing internal standard acetonitrile solution was added to all the sample wells. The mixture was mixed well, and centrifuged at 5,500×g for 10 minutes. 150 μL of corresponding ultrapure water was added to the corresponding sample wells of the 96-well sample plate. 150 μL of the supernatant was taken into the sample wells, and mixed well. Then, LC/MS/MS analysis was performed. The calculation formula of fu is: […]
where: CR: peak area ratio measured in the receiving chamber well CD: peak area ratio measured in the supply chamber well.

Sequence of CYP2D6 (P10635 whole entry): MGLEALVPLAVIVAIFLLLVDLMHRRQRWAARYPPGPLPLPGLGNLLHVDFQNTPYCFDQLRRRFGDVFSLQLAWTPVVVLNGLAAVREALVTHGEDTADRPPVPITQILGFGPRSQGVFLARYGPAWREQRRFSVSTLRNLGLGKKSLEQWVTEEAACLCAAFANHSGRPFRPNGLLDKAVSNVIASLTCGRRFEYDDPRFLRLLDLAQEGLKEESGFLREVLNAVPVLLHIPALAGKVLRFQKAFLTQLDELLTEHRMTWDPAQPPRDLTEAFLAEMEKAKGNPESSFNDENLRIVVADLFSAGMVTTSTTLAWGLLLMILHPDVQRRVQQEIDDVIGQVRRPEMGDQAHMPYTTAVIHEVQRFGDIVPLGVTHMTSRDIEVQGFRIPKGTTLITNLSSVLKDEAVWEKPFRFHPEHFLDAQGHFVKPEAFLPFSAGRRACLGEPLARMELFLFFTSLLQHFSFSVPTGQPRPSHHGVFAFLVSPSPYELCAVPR

COC(=O)NS(=O)(=O)c1sc(CC(C)C)c(C)c1-c1ccc(Cn2ccnc2Cl)cc1 [Compound I-34, Methyl ((3-(4-((2-chloro-1H-imidazol-1-yl)methyl)phenyl)-5-isobutyl-4-methylthiophen-2-yl)sulfonyl)carbamate]
Papp A→B at 2 h, 2 μM [1]: 31.3 nm/s
half-life at 1 μM [2]: 122 min
half-life at 1 μM [3]: 45 min
inhibition at 10 µM (CYP2D6): 12.6%
fraction unbound at 6 h, 1 μM ([4]; dog, pH 7.4, Canine plasma, read-out: fu % Canine): 0.0141
fraction unbound at 6 h, 1 μM ([4]; pH 7.4, Human plasma, read-out: fu % Human): 0.008
fraction unbound at 6 h, 1 μM ([4]; pH 7.4, Mouse plasma, read-out: fu % Mouse): 0.0093
fraction unbound at 6 h, 1 μM ([4]; pH 7.4, Rat plasma, read-out: fu % Rat): 0.0289
